In ChEMBL document CHEMBL5214906, “Novel Antiplasmodial Compounds Leveraged with Multistage Potency against the Parasite Plasmodium falciparum: In Vitro and In Vivo Evaluations and Pharmacokinetic Studies” (J Med Chem, 2021):
The source made the active and inactive calls. No cut-off for these calls is given here.

Assays:
Plasmodium berghei [1] = assay: Antimalarial activity against Plasmodium berghei assessed as reduction in oocyte burden in Anopheles stephensi mosquito midgut fed with blood isolated from compound treated parasite-infected Balb/c mouse at 200 mg/kg administered on day 1 and day 9 relative to control; format: functional; parameters: scale not given: the % may be the effect or the level left; settings: time 9 day
[2] = Toxicity in C57BL/6 mouse assessed as effect on motor activity at 100 to 400 mg/kg, ip measured upto 24 hrs; format: organism-based; settings: in vivo, dose 100-400 mg/kg
[3] = Toxicity in C57BL/6 mouse assessed as effect on kidney structure at 400 mg/kg, ip measured upto 24 hrs by H&E staining based histopathological analysis; format: organism-based; settings: in vivo
[4] = Therapeutic index, ratio of TC50 for cytotoxicity against human HepG2 cells to IC50 for antiplasmodial activity against Plasmodium falciparum 3D7 infected in human red blood cells; format: toxicity, cell-based; settings: read-out: TI
[5] = Toxicity in C57BL/6 mouse assessed as effect on globulin level at 400 mg/kg, ip measured upto 24 hrs (reference value: 4.19 gm/dl); format: organism-based; settings: in vivo
[6] = Toxicity in C57BL/6 mouse assessed as effect on feeding at 100 to 400 mg/kg, ip measured upto 24 hrs; format: organism-based; settings: in vivo, dose 100-400 mg/kg
[7] = Toxicity in C57BL/6 mouse assessed as effect on SGPT level in serum at 400 mg/kg, ip measured upto 24 hrs (reference value: 37.59 U/L); format: organism-based; settings: in vivo
[8] = Toxicity in C57BL/6 mouse assessed as effect on serum creatinine level at 400 mg/kg, ip measured upto 24 hrs (reference value: 0.47 mg/dl); format: organism-based; settings: in vivo
Plasmodium berghei [9] = assay: In vivo antimalarial activity against GFP-expressing Plasmodium berghei infected in C57BL/6 mouse assessed as inhibition of parasite growth in thick blood smear at 50 mg/kg, ip administered for 4 days and measured upto 8 days post-infection by microscopic analysis; format: functional, organism-based; settings: time <= 8.0 day
Plasmodium falciparum [10] = assay: Antiplasmodial activity against Plasmodium falciparum 3D7 infected in human red blood cells assessed as inhibition of parasitemia incubated for 48 hrs by giemsa staining based light microscopic analysis; format: functional, organism-based, Red blood cell; settings: 3D7, Erythrocyte
Plasmodium falciparum [11] = assay: Resistance index, ratio of IC50 for antiplasmodial activity against artemisinin partially resistant Plasmodium falciparum harbouring C580Y mutant to IC50 for antiplasmodial activity against Plasmodium falciparum 3D7; format: functional
[12] = Toxicity in C57BL/6 mouse assessed as effect on serum calcium level at 400 mg/kg, ip measured upto 24 hrs (reference value: 8.89 mg/dl); format: organism-based; settings: in vivo
Plasmodium berghei [13] = assay: In vivo antimalarial activity against Plasmodium berghei ANKA infected in C57BL/6 mouse assessed as reduction in parasitemia at 50 mg/kg, ip administered for 4 consecutive days and measured on day 8 post-infection by giemsa staining based microscopic analysis relative to control; format: functional; parameters: scale not given: the % may be the effect or the level left; settings: time 8 day
Plasmodium berghei [14] = assay: In vivo antimalarial activity against Plasmodium berghei ANKA strain infected in C57BL/6 mouse assessed as increase in mean survival time at 50 mg/kg, ip administered for 4 days and measured upto 30 days (reference value: 13 days); format: functional; settings: time <= 30 day
Plasmodium berghei [15] = assay: Antimalarial activity against Plasmodium berghei infected in Balb/c mouse assessed as parasite killing at 200 mg/kg administered on day 1 and day 9 relative to control; format: functional; settings: time 9 day
[16] = Toxicity in C57BL/6 mouse assessed as effect on total bilirubin level at 400 mg/kg, ip measured upto 24 hrs (reference value: 0.39 mg/dl); format: organism-based; settings: in vivo
[17] = Toxicity in C57BL/6 mouse assessed as effect on liver structure at 400 mg/kg, ip measured upto 24 hrs by H&E staining based histopathological analysis; format: organism-based; settings: in vivo
[18] = Toxicity in C57BL/6 mouse assessed as effect on serum LDH level at 400 mg/kg, ip measured upto 24 hrs; format: organism-based; settings: in vivo
[19] = Cytotoxicity against human HepG2 cells assessed as reduction in cell viability incubated for 48 hrs by MTT assay; format: toxicity, cell-based; settings: read-out: TC50
[20] = Toxicity in C57BL/6 mouse assessed as effect on serum uric acid level at 400 mg/kg, ip measured upto 24 hrs (reference value: 2.58 mg/dl); format: organism-based; settings: in vivo
[21] = Toxicity in C57BL/6 mouse assessed as effect on albumin level at 400 mg/kg, ip measured upto 24 hrs (reference value: 2.10 gm/dl); format: organism-based; settings: in vivo
[22] = Toxicity in C57BL/6 mouse assessed as effect on direct bilirubin level at 400 mg/kg, ip measured upto 24 hrs (reference value: 0.17 mg/dl); format: organism-based; settings: in vivo
[23] = Toxicity in C57BL/6 mouse assessed as effect on body weight at 100 to 400 mg/kg, ip measured upto 24 hrs; format: organism-based; settings: in vivo, dose 100-400 mg/kg
Plasmodium berghei [24] = assay: In vivo antimalarial activity against Plasmodium berghei ANKA strain infected in C57BL/6 mouse assessed as increase in mean survival time at 50 mg/kg, ip administered for 4 days and measured upto 30 days in the presence of artesunate (reference value: 13 days); format: functional; settings: time <= 30 day
[25] = Toxicity in C57BL/6 mouse assessed as effect on urea level at 400 mg/kg, ip measured upto 24 hrs (reference value: 44.50 mg/dl); format: organism-based; settings: in vivo
[26] = Drug recovery in C57BL/6 mouse plasma at 0.1 mg/ml; format: ADME, cell-free
Plasmodium berghei [27] = assay: Antiplasmodial activity against firefly luciferase-expressing Plasmodium berghei liver stage infected in human Huh-7 cells assessed as inhibition of parasite growth preincubated with cells for 1 hrs followed by parasite infection and […] by bioluminescence assay; format: functional, organism-based
Plasmodium berghei [28] = assay: In vivo antimalarial activity against Plasmodium berghei ANKA infected in C57BL/6 mouse assessed as reduction in parasitemia at 50 mg/kg, ip administered for 4 days and measured at day 8 post-infection in the presence of artesunate by giemsa staining based microscopic analysis relative to control; format: functional; parameters: scale not given: the % may be the effect or the level left; settings: time 8 day
Plasmodium berghei [29] = assay: Antimalarial activity against Plasmodium berghei assessed as reduction in Plasmodium berghei oocyte formation in Anopheles stephensi mosquito midgut fed with blood isolated from compound treated parasite-infected Balb/c mouse at 200 mg/kg administered on day 1 and day 9; format: functional, organism-based; settings: time 9.0 day
Plasmodium berghei [30] = assay: Antiplasmodial activity against Plasmodium berghei isolated from parasite-infected mouse blood assessed as reduction in number of healthy parasites in compound treated ookinete medium co-cultured with mouse blood at 0.05 to 0.45 uM by giemsa staining based analysis; format: functional, organism-based; settings: dose 0.05-0.45 µM
[31] = Toxicity in C57BL/6 mouse assessed as effect on total protein level at 400 mg/kg, ip measured upto 24 hrs (reference value: 6.29 gm/dl); format: organism-based; settings: in vivo
[32] = Toxicity in C57BL/6 mouse assessed as effect on SGOT level in serum at 400 mg/kg, ip measured upto 24 hrs (reference value: 147.2 U/L); format: organism-based; settings: in vivo
Plasmodium falciparum [33] = assay: Inhibition of Plasmodium falciparum plasmepsin X […] at 1 uM using DABCYL-G-PSFVEAPVRGG-EDANS as substrate by fluorescence based assay relative to control
[34] = Toxicity in C57BL/6 mouse assessed as effect on alkaline phosphatase level in serum at 400 mg/kg, ip measured upto 24 hrs (reference value: 108.3 U/L); format: organism-based; settings: in vivo
[35] = Toxicity in C57BL/6 mouse assessed as effect on indirect bilirubin level at 400 mg/kg, ip measured upto 24 hrs (reference value: 0.22 mg/dl); format: organism-based; settings: in vivo
Plasmodium falciparum [36] = assay: Antiplasmodial activity against artemisinin partially resistant Plasmodium falciparum harbouring C580Y mutant assessed as inhibition of parasitemia; format: functional, organism-based, Red blood cell; settings: Erythrocyte
Erythrocyte = assay: Hemolytic activity against human red blood cells upto 1600 uM incubated for 1 hrs by hemolysis assay; format: toxicity, cell-based
Plasmodium berghei [37] = assay: In vivo antimalarial activity against GFP-expressing Plasmodium berghei infected in C57BL/6 mouse assessed as inhibition of parasite growth in thin blood smear at 50 mg/kg, ip administered for 4 days and measured upto 8 days post-infection by giemsa staining based microscopic analysis; format: functional, organism-based; settings: time <= 8.0 day

O=C(N[C@@H](Cc1ccccc1)[C@@H](O)CN1CCN(Cc2ccccc2)CC1)c1ccc2ccccc2c1
Activity (Plasmodium berghei [1]): 80%
Activity [2]: Non-Toxic
Activity [3]: Non-Toxic
selectivity ratio [4]: 1560
Activity [5]: 4.14 g/dL
Activity [6]: Non-Toxic
Activity [7]: 22.45 U/L
Activity [8]: 0.77 mg/dL
Activity (Plasmodium berghei [9]): Active
IC50 (Plasmodium falciparum [10]): 0.15 µM
Ratio IC50 (Plasmodium falciparum [11]): 0.72
Activity [12]: 9.24 mg/dL
Activity (Plasmodium berghei [13]): 75%
MST (Plasmodium berghei [14]): 17 days
Activity (Plasmodium berghei [15]): 100%
Activity [16]: 0.28 mg/dL
Activity [17]: Non-Toxic
Activity [18]: Non-Toxic
CC50 at 48 h [19]: 234 µM
Activity [20]: 2.49 mg/dL
Activity [21]: 2.68 g/dL
Activity [22]: 0.11 mg/dL
Activity [23]: Non-Toxic
MST (Plasmodium berghei [24]): 27 days
Activity [25]: 49.03 mg/dL
Drug recovery [26]: > 87.3%
IC50 (Plasmodium berghei [27]): 1.56 µM
Activity (Plasmodium berghei [28]): 99%
Activity (Plasmodium berghei [29]): Active
Activity (Plasmodium berghei [30]): Active
Activity [31]: 6.82 g/dL
Activity [32]: 123.1 U/L
inhibition (Plasmodium falciparum [33]): 17.7%
Activity [34]: 41.9 U/L
Activity [35]: 0.17 mg/dL
IC50 (Plasmodium falciparum [36]): 0.11 µM
Activity (Erythrocyte): Non-Toxic
Activity (Plasmodium berghei [37]): Active
